Source: BigSolDB 2.1

CC1=CC(=O)C(C(C)C)=CC1=O
solubility (mole fraction)
Conditions | in DMSO | in ethanol | in ethyl acetate | in isopropanol | in methanol | in n-butanol | in propylene glycol | in sec-butanol | in transcutol | in water
298.2 K | 0.0278 | 0.0179 | 0.0312 | 0.0451 | 0.01 | 0.0594 | 0.00553 | 0.0614 | 0.0664 | 8.27e-05
303.2 K | 0.0309 | 0.0206 | 0.0347 | 0.0514 | 0.0116 | 0.0658 | 0.0069 | 0.07 | 0.0755 | 9.39e-05
308.2 K | 0.0358 | 0.0238 | 0.0387 | 0.0579 | 0.0137 | 0.0744 | 0.00891 | 0.0774 | 0.0838 | 0.000108
313.2 K | 0.0402 | 0.0278 | 0.0431 | 0.0663 | 0.0157 | 0.082 | 0.0116 | 0.0865 | 0.0927 | 0.000131
318.2 K | 0.045 | 0.0326 | 0.0485 | 0.0758 | 0.0182 | 0.0933 | 0.0146 | 0.0973 | 0.103 | 0.000152

Conditions | solubility (mole fraction)
in PEG-400, 298.2 K | 0.0352
in PEG-400, 303.2 K | 0.042
in PEG-400, 308.2 K | 0.0508
in PEG-400, 313.2 K | 0.0617
in PEG-400, 318.2 K | 0.0744
